This note sets out measurements from ChEMBL document CHEMBL1201862, “PubChem BioAssay data set” (2004).

Among the test systems are RPMI-8226; NCI-H460; UACC-62; SK-MEL-2; KM12; LOX IMVI; OVCAR-3; RXF 393; CAKI-1; OVCAR-8; HOP-92; SF-268; SR; DMS-114; SK-MEL-28.
Test in all cases: inhibition of tumour cell growth, NCI panel, 48 h

SMILES strings stand for the structures.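 Dose response: 5 concentrations. Exposure: 48 h. Format: 96-well plates. Endpoint: linear interpolation; highest concentration if not reached. GI50 = concentration required for 50% inhibition of growth.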 The source made the active and inactive calls. Cut-off read from the data, not from the text of the source: active = GI50 up to about 1.1 µM and inactive = higher.

For `O=C1C=C(O)C(=Cc2c(O)cc(O)cc2O)C(O)=C1`, the GI50 in the assay on RPMI-8226, with NCI-H460, in the assay with UACC-62, in the assay on SK-MEL-2, in the assay on KM12 and with LOX IMVI was > 100 µM (inactive) each time. The GI50 in the assay on OVCAR-3, in the assay on RXF 393, in the assay with CAKI-1, in the assay on OVCAR-8, in the assay with HOP-92 and in the assay with SF-268 was > 100 µM (inactive) throughout. Further, the GI50 in the assay with SR and in the assay with DMS-114 was > 100 µM (inactive) throughout.

With `O=C1C/C(Br)=C\c2ccccc2-c2ccccc21`, the GI50 is 1.52 µM (inactive) in the assay with RPMI-8226; 2.86 µM (inactive) in the assay on NCI-H460; 2.23 µM (inactive) in the assay on UACC-62; 2.7 µM (inactive) in the assay with SK-MEL-2; 3.52 µM (inactive) in the assay with KM12; 0.869 µM (active) in the assay on LOX IMVI. Further, the GI50 in the assay on OVCAR-3 was 2.45 µM (inactive); with RXF 393, 1.43 µM (inactive); in the assay with CAKI-1, 1.98 µM (inactive); with OVCAR-8 it was 2.19 µM (inactive); in the assay with HOP-92, 1.85 µM (inactive); in the assay with SF-268, 2.85 µM (inactive). The GI50 in the assay on SR is 0.405 µM (active); with DMS-114 it was 2.79 µM (inactive); in the assay with SK-MEL-28, 1.05 µM (active).

As to `O=C(CCC(=O)Nc1ccc(Cl)cc1)CC(=O)c1ccc2ccccc2c1`, the GI50 is > 100 µM (inactive) with RPMI-8226; > 100 µM (inactive) in the assay on NCI-H460; 32.7 µM (inactive) in the assay on UACC-62; > 100 µM (inactive) in the assay with SK-MEL-2; > 100 µM (inactive) in the assay on KM12; > 100 µM (inactive) with LOX IMVI. Also, the GI50 in the assay on OVCAR-3, in the assay with RXF 393, in the assay with CAKI-1, in the assay with OVCAR-8, in the assay on HOP-92 and in the assay with SF-268 was > 100 µM (inactive) in each case. For the same molecule, the GI50 in the assay with SR, in the assay on DMS-114 and in the assay with SK-MEL-28 was > 100 µM (inactive) throughout.

Take `O=C(Nc1nc2ncn(CCO)c2c(=S)[nH]1)c1ccccc1`: the GI50 in the assay with RPMI-8226, in the assay with NCI-H460, with UACC-62, in the assay on SK-MEL-2, in the assay on KM12 and in the assay on LOX IMVI was > 100 µM (inactive) in each case. Also, the GI50 in the assay with OVCAR-3, with RXF 393, with CAKI-1, in the assay with OVCAR-8, in the assay with HOP-92 and in the assay on SF-268 was > 100 µM (inactive) in each case. Besides, the GI50 in the assay with SR and with DMS-114 was > 100 µM (inactive) in each case.

Regarding `O=C1NC2=C(CCCCC/C2=N\O)C12CCCCCC2`, the GI50 in the assay with RPMI-8226, with NCI-H460, with UACC-62, with SK-MEL-2, with KM12 and with LOX IMVI was > 100 µM (inactive) in each case. In addition, the GI50 in the assay on OVCAR-3, with RXF 393, in the assay with CAKI-1, in the assay with OVCAR-8, with HOP-92 and with SF-268 was > 100 µM (inactive) in each case. For the same molecule, the GI50 in the assay with SR, in the assay on DMS-114 and in the assay with SK-MEL-28 was > 100 µM (inactive) throughout.

Take `C/C(=C1/CCCC2(N=NCC2c2ccccc2)C1=O)c1ccccc1` (configuration not stated): the GI50 with RPMI-8226 was 20 µM (inactive); in the assay on NCI-H460 it was 26.3 µM (inactive); in the assay on UACC-62, 16.3 µM (inactive); in the assay on SK-MEL-2 it was 19.1 µM (inactive); in the assay with KM12, 15.9 µM (inactive); in the assay with LOX IMVI it was 32.8 µM (inactive). Besides, the GI50 was 17.6 µM (inactive) in the assay with OVCAR-3; 25.4 µM (inactive) with RXF 393; 21.3 µM (inactive) in the assay on OVCAR-8; 24.2 µM (inactive) in the assay on HOP-92; 65.3 µM (inactive) in the assay on SF-268; 14 µM (inactive) in the assay on SR. The GI50 in the assay on DMS-114 was 9.16 µM (inactive); with SK-MEL-28 it was 26.9 µM (inactive).

On to `C1OC1CN1CCN(CC2CO2)CC1` (configuration not stated), for which the GI50 was > 66.8 µM (inactive) with RPMI-8226; 6.53 µM (inactive) with NCI-H460; 8.87 µM (inactive) in the assay on UACC-62; > 100 µM (inactive) with SK-MEL-2; > 100 µM (inactive) in the assay on KM12; 44.1 µM (inactive) with LOX IMVI. Also, the GI50 in the assay with OVCAR-3 is > 100 µM (inactive); in the assay with RXF 393, > 100 µM (inactive); with CAKI-1, 26.7 µM (inactive); in the assay on OVCAR-8, > 75.7 µM (inactive); with HOP-92, 80.9 µM (inactive); in the assay on SF-268, 22.8 µM (inactive). Moreover, the values for the GI50 with SR, in the assay with DMS-114 and with SK-MEL-28 were 2.42 µM (inactive), 12.8 µM (inactive) and > 100 µM (inactive), respectively.
